We go through one molecule from article PMC13439108, “An antibody–drug conjugate active against antibiotic-resistant Neisseria gonorrhoeae” (Proceedings of the National Academy of Sciences of the …, 2026).

≈ marks a conversion by molar mass, not a printed value. Where a SMILES comes first, the peptide text is derived from it. [ ]: non-standard residue; d: D form. The star is where a group is joined. d(aIle) = CC[C@H](C)[C@@H](N)C(=O)O; dDab = NCC[C@@H](N)C(=O)O; Octanoyl = CCCCCCCC(=O)*; Dab = NCC[C@H](N)C(=O)O; AEEA = NCCOCCOCC(=O)O

For experiment [1], the system named is N. gonorrhoeae FA1090. In words: Time-to-kill assay. Conditions: FA1090, 50 μg mL^−1 of the AMP, GW medium; n = 3. It counts as cell-based, Neisseria gonorrhoeae. Here is the method:
(§1) Fig. 4. […] (C) Time-to-kill curve analysis with ADCs protocol. N. gonorrhoeae were grown for 24 h prior to harvesting supernatant with or without IgAP, wild-type, and ΔigAP, respectively. Supernatant was dialyzed into fresh media prior to inoculating with respective N. gonorrhoeae strains. After 3 h growth, ADCs or peptides were added, and CFU/mL was calculated every 30 min for 4 h. […] All data shown are the mean ± SD of CFU/ml (n = 3).
(§2) 37°C, in 5% CO2 then 10 μl aliquots plated onto GCB agar. The MIC was defined as the lowest concentration of an antimicrobial that prevented bacterial growth.
(§3) Determination of N. gonorrhoeae resistance to Oct-TriA1
(§4) Single colonies of N. gonorrhoeae FA1090 were inoculated into 2 mL of FB media supplemented with 1% Vitox (Oxoid) and grown overnight. After 24 hours, 240 µl of a 1/ 5,000 dilution of FA1090 in 2x FB was added to a 48-well plate containing 2-fold dilutions of either Oct-TriA1-c (final concentration, 12.5 µg/ml to 0.2 µg/ml) or ciprofloxacin (final concentration, 16.4 to 0.001 µg/ml) in a total volume of 480
(§5) µl. Plates were incubated at 37 °C, 5% CO2 with shaking (180 rpm). After 24 hours, ODA600 of each well […]
(§6) Peptide concentrations for ADCs were calculated from the antibody concentration, the drug-to-antibody ratio (DAR), and the peptide molecular weight using the following formula: […]

The test system of experiment [2] is N. gonorrhoeae G97687 (MDR strain). The experiment is described as follows: Time-to-kill assay. It counts as cell-based, Neisseria gonorrhoeae. As to conditions: G97687, peptide 50 μg mL^−1, GW medium; n = 3. Here is the method:
as §1, §2, §3, §4, §5, §6

For experiment [3], the system named is N. gonorrhoeae FA1090. As to conditions: microdilution in FB, ~5 × 10^4 CFU, 24 hr, 37°C, 5% CO2. Here is the method: (§7) columns (ThermoFisher scientific). Activated mAb was added to 0.9 mg of Oct-TriA1 analogues (synthesised by ISCA Biochemicals, UK) and incubated at room temperature for 60 min. ADCs were dialysed using slide-A-Lyzer cassette (20K MWCO, ThermoFisher scientific) into PBS overnight at 4 °C […]
(§8) MALDI-TOF MS analysis for determination of intact mass mAbs or ADCs with a concentration of 1 mg/mL were acidified with 1% trifluoroacetic acid and mixed with Super DHB matrix, 1 μl was spotted onto an MTP Anchorchip 600/384. For every mAb, three sample spots were prepared from the same solution using three protocols advised by the manufacturer. MALDI-TOF measurements were performed on a Microflex LRF mass spectrometer, equipped with a 60Hz nitrogen laser at 337nm. Number of peptides conjugated was calculated using the MALDI-TOF molecular weights (MW) [MW = M+] of each ADC, the unconjugated antibody (mAb), and the molecular weights of Oct-TriA1 analogues using the following equation.
(§9) Number of peptides = MW ADC − MW mAb […]
(§10) Determination of Oct-TriA1 Minimum Inhibitory Concentration (MIC)
(§11) N. gonorrhoeae was resuspended in PBS to an ODA600 1.0, and ̴5 × 10^4 CFU added to wells of a microdilution plate containing dilutions of antimicrobials in FB. Plates were incubated for 24 hr at […]
(§12) 37°C, in 5% CO2 then 10 μl aliquots plated onto GCB agar. The MIC was defined as the lowest concentration of an antimicrobial that prevented bacterial growth. […]
(§13) Peptide concentration in ADC preparations
(§14) Peptide concentrations for ADCs were calculated from the antibody concentration, the drug-to-antibody ratio (DAR), and the peptide molecular weight using the following formula:
(§15) Conc. peptide (µg/mL) = Conc. ADC (µg/mL) × DAR x MWpeptide (Da) […]
(§16) Where Conc. ADC is the ADC/ mAb concentration, MWADC is the mAb molecular weight (150 kDa), MWpeptide is the peptide molecular weight and DAR is the average number of peptides per conjugate.
(§17) This formula was used to convert ADC concentrations to peptide concentrations for all assays. […]

The next experiment concerns N. gonorrhoeae MS11ΔmtrE. Conditions: microdilution in FB, ~5 × 10^4 CFU, 24 hr, 37°C, 5% CO2. Here is the method:
as §7, §8, §9, §10, §11, §12, §13, §14, §15, §16, §17

A further experiment relates to N. gonorrhoeae WHO L. As to conditions: microdilution in FB, ~5 × 10^4 CFU, 24 hr, 37°C, 5% CO2. The method, then:
as §7, §8, §9, §10, §11, §12, §13, §14, §15, §16, §17

A further experiment has as its system N. gonorrhoeae WHO M. As to conditions: microdilution in FB, ~5 × 10^4 CFU, 24 hr, 37°C, 5% CO2. Here is the method:
as §7, §8, §9, §10, §11, §12, §13, §14, §15, §16, §17

The test system of a further experiment is N. gonorrhoeae MS11. Conditions: microdilution in FB, ~5 × 10^4 CFU, 24 hr, 37°C, 5% CO2. Here is the method: as §7, §8, §9, §10, §11, §12, §13, §14, §15, §16, §17
A further experiment deals with N. gonorrhoeae WHO K. As to conditions: microdilution in FB, ~5 × 10^4 CFU, 24 hr, 37°C, 5% CO2. Here is the method:
as §7, §8, §9, §10, §11, §12, §13, §14, §15, §16, §17

A further experiment has as its system N. gonorrhoeae WHO G. Conditions: microdilution in FB, ~5 × 10^4 CFU, 24 hr, 37°C, 5% CO2. Here is the method: as §7, §8, §9, §10, §11, §12, §13, §14, §15, §16, §17
(Dilution methods test growth across graded concentrations, often in twofold steps.)

For a further experiment, the system named is N. gonorrhoeae MS11ΔIgAP. Conditions: microdilution in FB, ~5 × 10^4 CFU, 24 hr, 37°C, 5% CO2. The method, then:
as §7, §8, §9, §10, §11, §12, §13, §14, §15, §16, §17

The test system of experiment [4] is N. gonorrhoeae FA1090ΔmtrE. Conditions: microdilution in FB, ~5 × 10^4 CFU, 24 hr, 37°C, 5% CO2. Here is the method:
as §7, §8, §9, §10, §11, §12, §13, §14, §15, §16, §17

The subject of experiment [5] is N. gonorrhoeae FA1090ΔIgAP. As to conditions: microdilution in FB, ~5 × 10^4 CFU, 24 hr, 37°C, 5% CO2. Here is the method: as §7, §8, §9, §10, §11, §12, §13, §14, §15, §16, §17

A word on the MIC: it is the lowest concentration that inhibits growth of the organism. Low readings indicate a more susceptible organism, high ones a less susceptible organism. Take `CCCCCCCC(=O)N[C@@H](C(=O)N[C@H](CCN)C(=O)NCC(=O)N[C@H](CO)C(=O)N[C@H](Cc1c[nH]c2ccccc12)C(=O)N[C@@H](CO)C(=O)N[C@@H](CCN)C(=O)N[C@H](CCN)C(=O)N[C@@H](Cc1ccccc1)C(=O)N[C@@H](CCC(=O)O)C(=O)N[C@H](C(=O)N[C@@H](C(=O)N[C@@H](C)C(=O)NCCOCCOCC(=O)N[C@@H](CC(C)C)C(=O)N1CCC[C@H]1C(=O)N[C@@H](CCCNC(=N)N)C(=O)N1CCC[C@H]1C(=O)N1CCC[C@H]1C(=O)O)[C@@H](C)CC)C(C)C)C(C)C` [Oct-TriA1-c] (Octanoyl-[dV][dDab]G[dS][dW]S[Dab][dDab]FEV[d(aIle)]A[AEEA]LPRPP-OH): the “time to undetectable survival” value in the experiment with N. gonorrhoeae FA1090 [1] was 60 min. The “time to no survival” value in experiment [2] worked out at 180 min. Also, the MIC against N. gonorrhoeae FA1090 [3] came to 0.78 µg/mL (≈ 0.35 µM); in the experiment on N. gonorrhoeae MS11ΔmtrE, 1.56 µg/mL (≈ 0.701 µM); against N. gonorrhoeae WHO L, 1.56 µg/mL (≈ 0.701 µM); against N. gonorrhoeae WHO M it was 1.56 µg/mL (≈ 0.701 µM); with N. gonorrhoeae MS11 it was 3.13 µg/mL (≈ 1.41 µM); with N. gonorrhoeae WHO K it was 3.13 µg/mL (≈ 1.41 µM). In addition, the MIC against N. gonorrhoeae WHO G turned out to be 3.13 µg/mL (≈ 1.41 µM); against N. gonorrhoeae MS11ΔIgAP it was 6.25 µg/mL (≈ 2.81 µM); in experiment [4], 0.78 µg/mL (≈ 0.35 µM); in experiment [5] it was 0.78 µg/mL (≈ 0.35 µM).
